Earlier results, collected in patent publication US20100119604A1, “Solid drug formulation and device for storage and controlled delivery thereof” (BOSTON SCIENTIFIC SCIMED, INC., priority 2003, published 2010).
Where a name gives a salt, the structure may show the parent alone.

Conditions: daily exposure limit of excipient / residual solvent per ICH Guideline Q3C

Compound	Daily limit [mg]
COC(C)=O [Methyl acetate]	50
CCCCC(C)=O [Methylbutyl ketone]	0.5
C=C(Cl)Cl [1,1-Dichloroethene]	0.08
CCCCCCC [Heptane]	50
c1ccncc1 [Pyridine]	2.0
C1CCOC1 [Tetrahydrofuran]	7.2
CN(C)C=O [N,N-Dimethylformamide]	8.8
COCCO [2-Methoxyethanol]	0.5
ClC=C(Cl)Cl [1,1,2-Trichloroethene]	0.8
CCOC=O [Ethyl formate]	50
CCC(C)O (stereo not shown) [Formulation 2-Butanol, 2-Butanol]	50
O=CO [Formic acid]	50
COCCOC [1,2-Dimethoxyethane]	1.0
CN1CCCC1=O [N-Methylpyrrolidone]	5.3
C[S+](C)[O-] [Dimethyl sulfoxide]	50
CCCO [Formulation 1-Propanol, 1-Propanol]	50
c1ccc2c(c1)CCCC2 [Tetralin]	1.0
CC1CCCCC1 [Methylcyclohexane]	11.8
Xylene	21.7
CC(Cl)(Cl)Cl [1,1,1-Trichloroethane]	15
NC=O [Formamide]	2.2
C1CCCCC1 [Cyclohexane]	38.8

Compound	Daily limit [mg]
CCO [Ethanol]	50
CC(C)=O [Acetone]	50
CC(C)c1ccccc1 [Cumene]	50
CCCOC(C)=O [Propyl acetate]	50
c1ccccc1 [Benzene]	0.02
COC(C)(C)C [tert-Butylmethyl ether]	50
ClCCl [Dichloromethane]	6.0
Clc1ccccc1 [Chlorobenzene]	3.6
CC#N [Acetonitrile]	4.1
C[N+](=O)[O-] [Nitromethane]	0.5
CCCCCC [Hexane]	2.9
CCCCOC(C)=O [Butyl acetate]	50
COc1ccccc1 [Anisole]	50
ClC(Cl)(Cl)Cl [Carbon tetrachloride]	0.04
CCOCCO [2-Ethoxyethanol]	1.6
CCCCCO [Formulation 1-Pentanol, 1-Pentanol]	50
ClCCCl [1,2-Dichloroethane]	0.05
CC(=O)O [Acetic acid]	50
CCOCC [Ethyl ether]	50
CC(=O)CC(C)C [Methylisobutyl ketone]	50
OCCO [Ethyleneglycol]	6.2
